Test results: patent US20090163540A1, “Quinine Sulfate Polymorphs, Processes of Preparing, Compositions and Uses Thereof” (priority 2007, published 2009)
Counter-ions that a name gives are not always drawn.

Legend:
[1] = Moisture balance (moisture sorption/desorption, 5% to 95% RH) with post-MB XRPD; type: physicochemical
Procedure: In addition to XRPD, quinine sulfate polymorph A is analyzed by DSC, TGA, moisture balance (MB), post-MB XRPD, hotstage microscopy (HSM), Karl Fischer (KF) and variable temperature X-ray powder diffraction (VT-XRPD); a summary of the analyses is provided in Table 11b. Moisture sorption/desorption data are collected on a VTI SGA-100 Vapor Sorption Analyzer. Sorption and desorption data are collected over a range of 5% to 95% relative humidity (RH) at 10% RH intervals. Samples are not dried prior to analysis. Equilibrium criteria used for analysis are less than 0.0100% weight change in 5 minutes, with a maximum equilibration time of 3 hours if the weight criterion is not met. Data are not corrected for the initial moisture content of the samples. Sodium chloride and polyvinylpyrrolidone are used as calibration standards.

[2] = Variable-temperature XRPD (solid form on heating); type: physicochemical
Procedure: In addition to XRPD, quinine sulfate polymorph A is analyzed by DSC, TGA, moisture balance (MB), post-MB XRPD, hotstage microscopy (HSM), Karl Fischer (KF) and variable temperature X-ray powder diffraction (VT-XRPD); a summary of the analyses is provided in Table 11b. Variable-temperature XRPD is performed on a Shimadzu XRD-6000 X-ray powder diffractometer equipped with an Anton Paar HTK 1200 high temperature stage. The sample is packed in a ceramic holder and analyzed from 2.5 to 40 °2θ at 3°/min (0.4 sec/0.02° step). A silicon standard is analyzed to check the instrument alignment. Temperature calibration is performed using vanillin and sulfapyridine standards. Data are collected and analyzed using XRD-6000 v. 4.1.

- post-MB XRPD form ([1]; solid form after moisture balance): Form A
- MB (moisture balance) result ([1]; sorption/desorption 5% to 95% RH at 10% RH intervals): non-hygroscopic
- VT-XRPD form ([2]; 40° C. (listed after 110° C.)): 40° C.: Form A
- VT-XRPD form ([2]; 50° C.): 50° C.: Form A
- VT-XRPD form ([2]; 75° C.): 75° C.: Form A
- VT-XRPD form ([2]; 110° C.): 110° C.: Pattern D
- VT-XRPD form ([2]; ambient temp): ambient temp: Form A
Compound: C=C[C@H]1C[N@@]2CC[C@H]1C[C@H]2[C@H](O)c1ccnc2ccc(OC)cc12 [Form A, quinine sulfate]
